Data: patent US10219516B2, “Molecules having pesticidal utility, and intermediates, compositions, and processes, related thereto” (priority 2015, dated 2019)
Read-outs that look alike come from different tables or passages of the source.

Tests used:
Type in all cases: in vivo
[1] = tested on: Beet Armyworm (Spodoptera exigua, LAPHEG); experiment: Bioassay on Beet Armyworm (BAW), 128-well diet tray assay
Summary of the method: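 In a 128-well format, eight wells per compound received a surface dose of 50 μg/cm^2 on artificial diet. After drying, each well got one to five second instar larvae, held at 25° C. with 14:10 photoperiod. Mortality percentages after five to seven days were averaged.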

[2] = tested on: Yellow Fever Mosquito (Aedes aegypti, AEDSAE); experiment: Bioassay on Yellow Fever Mosquito (YFM), 96-well plate larval assay; settings: for YFM (Biological Results, rating): Species YFM (Yellow Fever Mosquito); for YFM rating: Yellow Fever Mosquito, 96-well plate larval assay
Summary of the method: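 Each well was scored for mortality after 3 days at room temperature under a non-evaporative lid. Test molecules came from DMSO masters (4000 ppm stock) diluted with water/acetone 90:10 and dispensed into six replicate plates, which were then infested with roughly 1-day-old larvae in liver-powder water.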

[3] = tested on: Cabbage Looper (Trichoplusia ni, TRIPNI); experiment: Bioassay on Cabbage Looper (CL), 128-well diet tray assay; settings: Trichoplusia ni
Summary of the method: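 Second-instar larvae, one to five per well, placed on artificial diet treated with 50 μg/cm^2 test molecule in 90:10 acetone-water, dried before infestation. Held 5–7 days at 25° C, 14:10 light-dark; percent mortality averaged over eight wells.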

[4] = Species BAW (Beet Armyworm), read-out: BAW (Biological Results, rating)
[5] = Species CL (Cabbage Looper), read-out: CL (Biological Results, rating)
[6] = Beet Armyworm, 128-well diet tray assay, read-out: BAW rating
[7] = Cabbage Looper, 128-well diet tray assay, read-out: CL rating

| Compound | pest or weed control at 50 µg/cm2 [1, 4] | YFM (Biological Results, rating) [2] | pest or weed control at 50 µg/cm2 [3, 5] | pest or weed control at 50 µg/cm2 [1, 6] | YFM rating [2] | pest or weed control at 50 µg/cm2 [3, 7] |
| --- | --- | --- | --- | --- | --- | --- |
| N#Cc1cc(Cl)cc([C@H]2[C@H](C(=O)Nc3ccc(Cl)c(C(=O)Nc4ccc(F)c(N)c4F)c3)C2(Cl)Cl)c1 (relative stereo) [F344, trans-N-(3-Amino-2,4-difluorophenyl)-2-chloro-5-(2,2-dichloro-3-(3-chloro-5-cyanophenyl)cyclopropane-1-carboxamido)benzamide] | 50 to 100% | A (80-100) | 50 to 100% | – | – | – |
| Nc1c(F)cnc(NC(=O)c2cc(NC(=O)[C@H]3[C@H](c4cc(Cl)cc(Cl)c4)C3(Cl)Cl)ccc2Cl)c1F (relative stereo) [F345, trans-N-(4-Amino-3,5-difluoropyridin-2-yl)-2-chloro-5-(2,2-dichloro-3-(3,5-dichlorophenyl)cyclopropane-1-carboxamido)benzamide] | 50 to 100% | A (80-100) | 50 to 100% | – | – | – |
| O=C(Nc1ccc(F)cc1F)c1cc(NC(=O)[C@H]2[C@H](c3ccc(F)c(F)c3)C2(Cl)Cl)ccc1Cl (relative stereo) [F346, 2-Chloro-5-(trans)-(2,2-dichloro-3-(3,4-difluorophenyl)cyclopropane-1-carboxamido)-N-(2,4-difluorophenyl)benzamide] | 50 to 100% | A (80-100) | 50 to 100% | – | – | – |
| O=C(Nc1ccc(F)cc1F)c1cc(NC(=O)[C@H]2[C@H](c3ccc(C(F)(F)F)c(F)c3)C2(Cl)Cl)ccc1Cl (relative stereo) [F347, 2-Chloro-5-(trans)-(2,2-dichloro-3-(3-fluoro-4-(trifluoromethyl)phenyl)cyclopropane-1-carboxamido)-N-(2,4-difluorophenyl)benzamide] | 50 to 100% | A (80-100) | 50 to 100% | – | – | – |
| O=C(Nc1ccc(F)cc1[N+](=O)[O-])c1cc(NC(=O)[C@H]2[C@H](c3cc(Cl)cc(Cl)c3)C2(Cl)Cl)ccc1Cl (relative stereo) [F348, trans-2-Chloro-5-(2,2-dichloro-3-(3,5-dichlorophenyl)cyclopropane-1-carboxamido)-N-(4-fluoro-2-nitrophenyl)benzamide] | 50 to 100% | A (80-100) | 50 to 100% | – | – | – |
| C=Cc1cc([C@H]2[C@H](C(=O)Nc3ccc(Cl)c(C(=O)Nc4ccc(F)cc4)c3)C2(Cl)Cl)ccc1Cl (relative stereo) [F349, 2-Chloro-5-(trans-2,2-dichloro-3-(4-chloro-3-vinylphenyl)cyclopropane-1-carboxamido)-N-(4-fluorophenyl)benzamide] | 50 to 100% | A (80-100) | 50 to 100% | – | – | – |
| C=Cc1cc(Cl)cc([C@H]2[C@H](C(=O)Nc3ccc(Cl)c(C(=O)Nc4ccc(F)cc4)c3)C2(Cl)Cl)c1 (relative stereo) [F350, 2-Chloro-5-(trans-2,2-dichloro-3-(3-chloro-5-vinylphenyl)cyclopropane-1-carboxamido)-N-(4-fluorophenyl)benzamide] | 50 to 100% | A (80-100) | 50 to 100% | – | – | – |
| C=Cc1cc([C@H]2[C@H](C(=O)Nc3ccc(Cl)c(C(=O)Nc4ccc(F)cc4F)c3)C2(Cl)Cl)ccc1Cl (relative stereo) [F351, 2-Chloro-5-(trans-2,2-dichloro-3-(4-chloro-3-vinylphenyl)cyclopropane-1-carboxamido)-N-(2,4-difluorophenyl)benzamide] | 50 to 100% | A (80-100) | 50 to 100% | – | – | – |
| C=Cc1cc(Cl)cc([C@H]2[C@H](C(=O)Nc3ccc(Cl)c(C(=O)Nc4ccc(F)cc4F)c3)C2(Cl)Cl)c1 (relative stereo) [F352, 2-Chloro-5-(trans-2,2-dichloro-3-(3-chloro-5-vinylphenyl)cyclopropane-1-carboxamido)-N-(2,4-difluorophenyl)benzamide] | 50 to 100% | A (80-100) | 50 to 100% | – | – | – |
| C=Cc1ccc([C@H]2[C@H](C(=O)Nc3ccc(Cl)c(C(=O)Nc4ccc(F)c(N)c4F)c3)C2(Cl)Cl)cc1Cl (relative stereo) [F355, N-(3-Amino-2,4-difluorophenyl)-2-chloro-5-(trans-2,2-dichloro-3-(3-chloro-4-vinylphenyl)cyclopropane-1-carboxamido)benzamide] | 50 to 100% | A (80-100) | 50 to 100% | – | – | – |
| C=Cc1cc(Cl)cc([C@H]2[C@H](C(=O)Nc3ccc(Cl)c(C(=O)Nc4ccc(F)c(N)c4F)c3)C2(Cl)Cl)c1 (relative stereo) [F356, N-(3-Amino-2,4-difluorophenyl)-2-chloro-5-(trans-2,2-dichloro-3-(3-chloro-5-vinylphenyl)cyclopropane-1-carboxamido)benzamide] | 50 to 100% | A (80-100) | 50 to 100% | – | – | – |
| O=C(Nc1ccc(Br)c(F)n1)c1cc(NC(=O)[C@H]2[C@H](c3cc(Cl)cc(Cl)c3)C2(Cl)Cl)ccc1Cl (relative stereo) [F357, N-(5-Bromo-6-fluoropyridin-2-yl)-2-chloro-5-(trans-2,2-dichloro-3-(3,5-dichlorophenyl)cyclopropane-1-carboxamido)benzamide] | 50 to 100% | A (80-100) | 50 to 100% | – | – | – |
| Nc1cc(F)ccc1NC(=O)c1cc(NC(=O)[C@H]2[C@H](c3cc(Cl)cc(Cl)c3)C2(Cl)Cl)ccc1Cl (relative stereo) [F361, trans-N-(2-amino-4-fluorophenyl)-2-chloro-5-(2,2-dichloro-3-(3,5-dichlorophenyl)cyclopropane-1-carboxamido)benzamide] | 50 to 100% | A (80-100) | 50 to 100% | – | – | – |
| O=C(Nc1ccc(F)cc1F)c1cc(NC(=O)[C@H]2[C@H](c3ccc(Br)c(F)c3)C2(Cl)Cl)ccc1Cl (relative stereo) [F364, 5-(trans)-(3-(4-Bromo-3-fluorophenyl)-2,2-dichlorocyclopropane-1-carboxamido)-2-chloro-N-(2,4-difluorophenyl)benzamide] | 50 to 100% | A (80-100) | 50 to 100% | – | – | – |
| O=C(Nc1ccc(F)cc1F)c1cc(NC(=O)[C@H]2[C@H](c3ccc(C(F)(F)F)c(Br)c3)C2(Cl)Cl)ccc1Cl (relative stereo) [F365, 5-(trans)-(3-(3-Bromo-4-(trifluoromethyl)phenyl)-2,2-dichlorocyclopropane-1-carboxamido)-2-chloro-N-(2,4-difluorophenyl)benzamide] | 50 to 100% | A (80-100) | 50 to 100% | – | – | – |
| O=C(Nc1ccc(F)cc1F)c1cc(NC(=O)[C@H]2[C@H](c3ccc(Br)c(C(F)(F)F)c3)C2(Cl)Cl)ccc1Cl (relative stereo) [F366, 5-(trans)-(3-(4-Bromo-3-(trifluoromethyl)phenyl)-2,2-dichlorocyclopropane-1-carboxamido)-2-chloro-N-(2,4-difluorophenyl)benzamide] | 50 to 100% | A (80-100) | 50 to 100% | – | – | – |
| O=C(Nc1ccc(F)cc1F)c1cc(NC(=O)[C@H]2[C@H](c3ccc(C(F)(F)F)c(Cl)c3)C2(Cl)Cl)ccc1Cl (relative stereo) [F367, 2-Chloro-5-(trans)-(2,2-dichloro-3-(3-chloro-4-(trifluoromethyl)phenyl)cyclopropane-1-carboxamido)-N-(2,4-difluorophenyl)benzamide] | 50 to 100% | A (80-100) | 50 to 100% | – | – | – |
| O=C(Nc1ccc(F)cc1F)c1cc(NC(=O)[C@H]2[C@H](c3ccc(Cl)c(C(F)(F)F)c3)C2(Cl)Cl)ccc1Cl (relative stereo) [F374, 2-Chloro-5-(trans)-(2,2-dichloro-3-(4-chloro-3-(trifluoromethyl)phenyl)cyclopropane-1-carboxamido)-N-(2,4-difluorophenyl)benzamide] | – | – | – | 50 to 100% | A (80-100) | 50 to 100% |
| O=C(Nc1ccc(F)cc1F)c1cc(NC(=O)[C@H]2[C@H](c3ccc(F)c(Br)c3)C2(Cl)Cl)ccc1Cl (relative stereo) [F375, 5-(trans)-(3-(3-Bromo-4-fluorophenyl)-2,2-dichlorocyclopropane-1-carboxamido)-2-chloro-N-(2,4-difluorophenyl)benzamide] | – | – | – | 50 to 100% | A (80-100) | 50 to 100% |
| O=C(Nc1ccc(F)cc1F)c1cc(NC(=O)[C@H]2[C@H](c3ccc(F)c(C(F)(F)F)c3)C2(Cl)Cl)ccc1Cl (relative stereo) [F376, 2-Chloro-5-(trans)-(2,2-dichloro-3-(4-fluoro-3-(trifluoromethyl)phenyl)cyclopropane-1-carboxamido)-N-(2,4-difluorophenyl)benzamide] | – | – | – | 50 to 100% | A (80-100) | 50 to 100% |
